From patent publication US7358249B2, “Heterocyclic compounds having inhibitory activity against HIV integrase” (Shionogi & Co., Ltd., priority 2002, dated 2008)

SMILES	melting point
COC(=O)c1cc(C(=O)NC2CCCCC2)c2cc(Cc3ccc(F)cc3)cnc2c1O	212 to 213 °C
COC(=O)c1cc(C(=O)NCC(C)C)c2cc(Cc3ccc(F)cc3)cnc2c1O	178 to 179 °C
C#CCNC(=O)c1cc(C(=O)OC)c(O)c2ncc(Cc3ccc(F)cc3)cc12	192 to 193 °C
COCC(=O)NNC(=O)c1cc(C(=O)OC)c(O)c2ncc(Cc3ccc(F)cc3)cc12	181 to 182 °C
COC(=O)c1cc(N(C=O)C=O)c2cc(Cc3ccc(F)cc3)cnc2c1O	243 to 245 °C
COC(=O)c1cc(C(=O)NN)c2cc(Cc3ccc(F)cc3)cnc2c1O	156 to 157 °C
COC(=O)c1cc(NC(=O)c2ccc(Cl)cc2)c2cc(Cc3ccc(F)cc3)cnc2c1O	253 to 254 °C
COCCC(=O)Nc1cc(C(=O)OC2CCN(C(C)=O)CC2)c(O)c2ncc(Cc3ccc(F)cc3)cc12	89 to 90 °C
COC(=O)CCc1cc(C(=O)OC)c(O)c2c1CC(Cc1ccc(F)cc1)CN2 (stereo not shown)	140 to 141 °C
COCCNC(=O)c1cc(C(=O)OC)c2cc(Cc3ccc(F)cc3)cnc2c1O	165 to 167 °C
COC(=O)c1cc(NC(=O)c2cc(C)on2)c2cc(Cc3ccc(F)cc3)cnc2c1O	182 to 183 °C
COC(=O)c1cc(C(=O)NN2CCCCC2)c2cc(Cc3ccc(F)cc3)cnc2c1O	233 to 234 °C
COC(=O)c1cc(C(=O)N2CCC(CO)CC2)c2cc(Cc3ccc(F)cc3)cnc2c1O	161 to 162 °C
COC(=O)c1nc(N2C(=O)COCC2=O)c2cc(Cc3ccc(F)cc3)cnc2c1O	182 to 184 °C
COC(=O)c1cc(C(=O)NC2CCOCC2)c2cc(Cc3ccc(F)cc3)cnc2c1O	246 to 247 °C
COC(=O)c1cc(C(=O)N(C)CC(=O)N(C)C)c2cc(Cc3ccc(F)cc3)cnc2c1O	99 to 100 °C
COC(=O)c1nc(C(=O)NS(=O)(=O)c2ccccc2)c2cc(Cc3ccc(F)cc3)cnc2c1O	228 to 229 °C
COC(=O)c1cc(C(=O)[O-])c2cc(Cc3ccc(F)cc3)cnc2c1O.[Na+]	> 208 °C
COC(=O)c1cc(C#N)c2cc(Cc3ccc(F)cc3)cnc2c1O	178 to 179 °C
CC(=O)N1CCC(OC(=O)c2cc(C(=O)O)c3cc(Cc4ccc(F)cc4)cnc3c2O)CC1	230 to 232 °C
COC(=O)c1cc(C(=O)NCCN(C)C)c2cc(Cc3ccc(F)cc3)cnc2c1O	115 to 116 °C
COCCCCC(=O)c1cc(C(=O)O)c2cc(Cc3ccc(F)cc3)cnc2c1O	216 to 218 °C

SMILES	melting point
COC(=O)c1cc(C(=O)N2CCCC(=O)C2)c2cc(Cc3ccc(F)cc3)cnc2c1O	228 to 229 °C
CCN(C=O)c1cc(C(=O)OC)c(O)c2ncc(Cc3ccc(F)cc3)cc12	90 to 91 °C
O=C(NCc1ccc(F)cc1)c1c(O)c2ncc(Cc3ccccc3)cc2[nH]c1=O	> 300 °C
COCCNC(=O)c1nc(C(=O)OC)c(O)c2ncc(Cc3ccc(F)cc3)cc12	145 to 146 °C
CCOC(=O)c1cc(C(=O)O)c2cc(Cc3ccc(F)cc3)cnc2c1O	238 to 239 °C
COC(=O)c1nc(NC(=O)Nc2ccccc2)c2cc(Cc3ccc(F)cc3)cnc2c1O	254 to 255 °C
COC(=O)c1cc(-c2ccccc2C=O)c2cc(Cc3ccc(F)cc3)cnc2c1O	73 to 75 °C
COC(=O)c1cc(C(=O)NNC(=O)c2ccccn2)c2cc(Cc3ccc(F)cc3)cnc2c1O	164 to 166 °C
COC(=O)c1cc(C(=O)NCCN)c2cc(Cc3ccc(F)cc3)cnc2c1O	229 to 230 °C
CCC(=O)c1cc(C(=O)O)c2cc(Cc3ccc(F)cc3)cnc2c1O	235 to 237 °C
CC(=O)c1cc(C(=O)O)c2cc(Cc3ccc(F)cc3)cnc2c1O	239 to 242 °C
CN(C)NC(=O)c1nc(C#CC2=CCCC2)c2cc(Cc3ccc(F)cc3)cnc2c1O	206 to 207 °C
COC(=O)c1cc(NC(=O)c2ccccc2)c2cc(Cc3ccc(F)cc3)cnc2c1O	247 to 249 °C
CCCCC(=O)c1cc(C(=O)O)c2cc(Cc3ccc(F)cc3)cnc2c1O	227 to 229 °C
CCOC(=O)CNNC(=O)c1cc(C(=O)OC)c(O)c2ncc(Cc3ccc(F)cc3)cc12	184 to 185 °C
COC(=O)c1cc(C(=O)NCCOCCO)c2cc(Cc3ccc(F)cc3)cnc2c1O	162 to 163 °C
COC(=O)Cc1cc(C(=O)OC)c(O)c2ncc(Cc3ccc(F)cc3)cc12	168 to 169 °C
COC(=O)C(=O)Nc1cc(C(=O)OC)c(O)c2ncc(Cc3ccc(F)cc3)cc12	168 to 170 °C
COC(=O)c1cc(C(=O)NNC(=O)c2ccccc2)c2cc(Cc3ccc(F)cc3)cnc2c1O	227 to 229 °C
COC(=O)c1cc(C(=O)NC(C)(C)CO)c2cc(Cc3ccc(F)cc3)cnc2c1O	204 to 205 °C
CCCC(=O)c1cc(C(=O)O)c2cc(Cc3ccc(F)cc3)cnc2c1O	232 to 234 °C
COCCOC(=O)c1cc(C(=O)NOC)c(O)c2ncc(Cc3ccc(F)cc3)cc12	166 to 168 °C

SMILES	melting point
COC(=O)c1cc(C(=O)NCCC2CCOCC2)c2cc(Cc3ccc(F)cc3)cnc2c1O	198 to 199 °C
COC(=O)c1cc(C(=O)NCC(=O)O)c2cc(Cc3ccc(F)cc3)cnc2c1O	246 to 247 °C
COC(=O)c1cc(NC(=N)N)c2cc(Cc3ccc(F)cc3)cnc2c1O.Cl	261.5 to 262.5 °C
O=C1CCc2cc3cc(Cc4ccc(F)cc4)cnc3c(O)c21	195 to 197 °C
COC(=O)c1cc(NC(=O)C(F)(F)F)c2cc(Cc3ccc(F)cc3)cnc2c1O	191 to 192 °C
COC(=O)c1cc(C(=O)NNC(=O)c2cccnc2)c2cc(Cc3ccc(F)cc3)cnc2c1O	184 to 185 °C
CC(=O)NNC(=O)c1cc(C(=O)OC2CCN(C(C)=O)CC2)c(O)c2ncc(Cc3ccc(F)cc3)cc12	129 to 131 °C
COC(=O)c1nc(N2CCOC2=O)c2cc(Cc3ccc(F)cc3)cnc2c1O	256 °C (dec.)
CC(C)NC(=O)c1nc(NS(C)(=O)=O)c2cc(Cc3ccc(F)cc3)cnc2c1O	167 to 168 °C
COC(=O)c1cc(C(=O)NNC(C)=O)c2cc(Cc3ccc(F)cc3)cnc2c1O	208 to 209 °C
COCC(=O)Nc1cc(C(=O)OC)c(O)c2ncc(Cc3ccc(F)cc3)cc12	154 to 155 °C
COC(=O)c1cc(C(=O)N2CCC(C(N)=O)CC2)c2cc(Cc3ccc(F)cc3)cnc2c1O	235 to 238 °C
CONC(=O)c1cc(C(=O)OC)c2cc(Cc3ccc(F)cc3)cnc2c1O	186 to 188 °C
COC(=O)c1cc(C(=O)NC2CCNCC2)c2cc(Cc3ccc(F)cc3)cnc2c1O	232 to 233 °C
CC(C)OC(=O)c1cc(C(=O)O)c2cc(Cc3ccc(F)cc3)cnc2c1O	249 to 251 °C (dec.)
CCCOC(=O)c1cc(C(=O)O)c2cc(Cc3ccc(F)cc3)cnc2c1O	249 to 251 °C (dec.)
COCc1cc(C(=O)OC)c(O)c2ncc(Cc3ccc(F)cc3)cc12	110 to 111 °C
COC(=O)c1cc(CCC(=O)O)c2cc(Cc3ccc(F)cc3)cnc2c1O	254 to 256 °C
COC(=O)c1cc(C(=O)NCCOc2ccccc2)c2cc(Cc3ccc(F)cc3)cnc2c1O	194 to 195 °C
CONC(=O)c1cc(C(=O)OC)c(O)c2ncc(Cc3ccc(F)cc3)cc12	200 to 201 °C
COCCNC(=O)c1nc(C#CCNS(C)(=O)=O)c2cc(Cc3ccc(F)cc3)cnc2c1O	198 °C
COC(=O)c1cc(N2CCCCC2)c2cc(Cc3ccc(F)cc3)cnc2c1O	133 to 134 °C

SMILES	melting point
CC(=O)N1CCC(OC(=O)c2cc(C(=O)NCCCO)c3cc(Cc4ccc(F)cc4)cnc3c2O)CC1	97 to 99 °C
CC(=O)N1CCC(OC(=O)c2nc(C#CCNS(C)(=O)=O)c3cc(Cc4ccc(F)cc4)cnc3c2O)CC1	192 to 193 °C
COC(=O)c1cc(C(=O)NCCOC(C)C)c2cc(Cc3ccc(F)cc3)cnc2c1O	175 to 176 °C
COC(=O)c1cc(CN2C(=O)CCCC2=O)c2cc(Cc3ccc(F)cc3)cnc2c1O	154 to 156 °C
COC(=O)c1cc(C(=O)NNS(C)(=O)=O)c2cc(Cc3ccc(F)cc3)cnc2c1O	> 250 °C
COC(=O)c1cc(NC(=O)C2CCCCC2)c2cc(Cc3ccc(F)cc3)cnc2c1O	250 to 251 °C
COC(=O)c1cc(-c2ccccc2C(=O)O)c2cc(Cc3ccc(F)cc3)cnc2c1O	250 to 252 °C
CCN(c1cc(C(=O)OC)c(O)c2ncc(Cc3ccc(F)cc3)cc12)S(C)(=O)=O	149 to 150 °C
CCOCCNC(=O)c1cc(C(=O)OC)c(O)c2ncc(Cc3ccc(F)cc3)cc12	174 to 175 °C
COC(=O)c1cc(N2CCNC2=O)c2cc(Cc3ccc(F)cc3)cnc2c1O	248 to 250 °C
COCCCNC(=O)c1cc(C(=O)OC)c(O)c2ncc(Cc3ccc(F)cc3)cc12	166 to 167 °C
COCCCC(=O)c1cc(C(=O)O)c2cc(Cc3ccc(F)cc3)cnc2c1O	226 to 228 °C
COC(=O)c1cc(C(=O)NNC=O)c2cc(Cc3ccc(F)cc3)cnc2c1O	249 to 250 °C
CCN(CCOC)C(=O)c1cc(C(=O)OC)c(O)c2ncc(Cc3ccc(F)cc3)cc12	90 to 91 °C
COC(=O)c1cc(Cc2cc(C(=O)OC)c(O)c3ncc(Cc4ccc(F)cc4)cc23)c2cc(Cc3ccc(F)cc3)cnc2c1O	244 to 245 °C
COC(=O)c1cc(N2CCOCC2)c2cc(Cc3ccc(F)cc3)cnc2c1O	119 to 120 °C
COC(=O)c1cc(CC(=O)O)c2cc(Cc3ccc(F)cc3)cnc2c1O	218 to 220 °C
CC(=O)N1CCC(OC(=O)c2cc(C(=O)NN(C)C)c3cc(Cc4ccc(F)cc4)cnc3c2O)CC1	92 to 93 °C
CCC(=O)c1cc(N2CCCC2=O)c2cc(Cc3ccc(F)cc3)cnc2c1O	202 to 203 °C
COC(=O)c1cc(C(=O)N2COCC2(C)C)c2cc(Cc3ccc(F)cc3)cnc2c1O	149 to 150 °C
COC(=O)c1cc(NC(=O)Cc2ccc(F)cc2)c2cc(Cc3ccc(F)cc3)cnc2c1O	239 to 240 °C
CNC(=S)Nc1cc(C(=O)OC)c(O)c2ncc(Cc3ccc(F)cc3)cc12	189 to 191 °C
